Results as given in patent US9539252B2, “Piperazine-substituted benzothiophene derivatives as antipsychotic agents” (OTSUKA PHARMACEUTICAL CO., LTD., priority 2011, dated 2017).

Assay: Solubility in oil (sesame oil, benzyl benzoate), visual observation
Conditions: oil or lipid, thermodynamic from solid

Row | Compound | solubility (benzyl benzoate) [mg/mL] | solubility (sesame oil) [mg/mL]
1 | O=C(OCN1C(=O)CCc2ccc(OCCCCN3CCN(c4cccc5sccc45)CC3)cc21)C1CCOCC1 [Example 120, tetrahydropyran-4-carboxylic acid 7-[4-(4-benzo[b]thiophen-4-ylpiperazin-1-yl)butoxy]-2-oxo-3,4-dihydro-2H-quinolin-1-ylmethyl ester] | > 100 | –
2 | CCCCCCCCCC(=O)OCn1c(=O)ccc2ccc(OCCCCN3CCN(c4cccc5sccc45)CC3)cc21 [Example 59, decanoic acid 7-[4-(4-benzo[b]thiophen-4-ylpiperazin-1-yl)butoxy]-2-oxo-2H-quinolin-1-ylmethyl ester] | > 100 | –
3 | CC(C)(C)C(=O)OCN1C(=O)CCc2ccc(OCCCCN3CCN(c4cccc5sccc45)CC3)cc21 [Example 15, 2,2-dimethylpropionic acid 7-[4-(4-benzo[b]thiophen-4-ylpiperazin-1-yl)butoxy]-2-oxo-3,4-dihydro-2H-quinolin-1-ylmethyl ester] | > 100 | –
4 | CCCCCCCCCCNC(=O)OCN1C(=O)CC(C)(C)c2ccc(OCCCCN3CCN(c4cccc5sccc45)CC3)cc21 [Example 158, N-decylcarbamic acid 7-[4-(4-benzo[b]thiophen-4-ylpiperazin-1-yl)-butoxy]-4,4-dimethyl-2-oxo-3,4-dihydro-2H-quinolin-1-ylmethyl ester] | > 100 | > 100
5 | CCN(CC)C(=O)OCN1C(=O)CCc2ccc(OCCCCN3CCN(c4cccc5sccc45)CC3)cc21 [Example 52, N,N-diethylcarbamic acid 7-[4-(4-benzo[b]thiophen-4-ylpiperazin-1-yl)butoxy]-2-oxo-3,4-dihydro-2H-quinolin-1-ylmethyl ester] | > 100 | > 100
6 | CCCCCCCC/C=C\CCCCCCCC(=O)OCn1c(=O)ccc2ccc(OCCCCN3CCN(c4cccc5sccc45)CC3)cc21 [Example 39, (Z)-octadec-9-enoic acid 7-[4-(4-benzo[b]thiophen-4-ylpiperazin-1-yl)butoxy]-2-oxo-2H-quinolin-1-ylmethyl ester] | > 100 | –
7 | O=C(OCOc1ccc2ccc(OCCCCN3CCN(c4cccc5sccc45)CC3)cc2n1)OC1CCCCC1 [Example 372, 7-[4-(4-benzo[b]thiophen-4-yl-piperazin-1-yl)-butoxy]-quinolin-2-yloxymethyl cyclohexyl carbonate] | > 100 | –
8 | CCCCCCOC(=O)Oc1ccc2ccc(OCCCCN3CCN(c4cccc5sccc45)CC3)cc2n1 [Example 381, 7-[4-(4-benzo[b]thiophen-4-yl-piperazin-1-yl)-butoxy]-quinolin-2-yl hexyl carbonate] | > 100 | > 100
9 | O=C(OCn1c(=O)ccc2ccc(OCCCCN3CCN(c4cccc5sccc45)CC3)cc21)c1cccs1 [Example 141, thiophene-2-carboxylic acid 7-[4-(4-benzo[b]thiophen-4-ylpiperazin-1-yl)butoxy]-2-oxo-2H-quinolin-1-ylmethyl ester] | > 100 | –
10 | CCCCCCCCCCCCCCCNC(=O)OCN1C(=O)CCc2ccc(OCCCCN3CCN(c4cccc5sccc45)CC3)cc21 [Example 76, N-pentadecylcarbamic acid 7-[4-(4-benzo[b]thiophen-4-ylpiperazin-1-yl)butoxy]-2-oxo-3,4-dihydro-2H-quinolin-1-ylmethyl ester] | > 100 | > 100
11 | COC(=O)OCN1C(=O)CCc2ccc(OCCCCN3CCN(c4cccc5sccc45)CC3)cc21 [Example 72, carbonic acid 7-[4-(4-benzo[b]thiophen-4-ylpiperazin-1-yl)butoxy]-2-oxo-3,4-dihydro-2H-quinolin-1-ylmethyl ester methyl ester] | > 100 | –
12 | CCCCCCCCCCCCCCCCOC(=O)OCN1C(=O)CCc2ccc(OCCCCN3CCN(c4cccc5sccc45)CC3)cc21 [Example 144, carbonic acid 7-[4-(4-benzo[b]thiophen-4-ylpiperazin-1-yl)butoxy]-2-oxo-3,4-dihydro-2H-quinolin-1-ylmethyl ester hexadecyl ester] | > 100 | > 100
